Assay results from patent publication US11851692B2, “Method for preparing an antimycin compound produced by Streptomyces sp.4-7” (priority 2022, dated 2023).
In brackets after ≈: the same amount, converted by molar mass.

Key:
[1] = tested on: Staphylococcus griseus (CGMCC 3.3789); test: Oxford Cup method antifungal test, Botrytis cinerea; assay type: cell-based, Botrytis cinerea (CGMCC3.3789); conditions: result in words
Description: (§1) Preparation of the test sample solution: The test sample was the pure compound I separated and purified in the above Example 1. An appropriate amount of sample was accurately weighed and mixed with DMSO to obtain a solution of the required concentration for testing the antifungal activity. The indicator bacteria used in this experiment were Botrytis cinerea (CGMCC3.3789) and Penicillium citrinum (ATCC1109).
(§2) Oxford Cup method for antifungal test: 100 μL of spore suspension was spread evenly on PDA plates, and Oxford cups were placed in the center of the plates. 100 μL of compound solutions of different concentrations were added into the Oxford cups separately, the concentrations of the compound solutions were 32 μg/mL, 16 μg/mL, 8 μg/mL, 4 μg/mL, 2 μg/mL, 1 μg/mL, and 0.5 μg/mL. DMSO was used as a negative control, and prochloraz of the same concentration was used as a positive control. After incubation at 28° C. for 5 days, the growth of fungi was observed. Four culture plates were set up for each treatment, and the whole experiment was repeated three times.

[2] = as above; assay type: cell-based, Botrytis cinerea (CGMCC3.3789); conditions: Staphylococcus, CGMCC3, 120 h; Oxford Cup method, PDA plates, 28° C., 5 days; strain CGMCC 3.3789; read-out: minimum inhibitory concentration (MIC)
Description: as §1, §2

[3] = tested on: Penicillium oryzae (ATCC 1109); test: Oxford Cup method antifungal test, Penicillium citrinum; assay type: cell-based, Penicillium citrinum (ATCC1109)
Description: as §1, §2

## CC[C@@H](C)C[C@H]1C(=O)O[C@H](C)[C@H](NC(=O)c2cccc(NC=O)c2O)C(=O)O[C@@H](C)[C@@H]1CC(=O)C(C)C [Compound I, Antimycin I]
[1]
  resistance activity against Botrytis cinerea (antifungal activity screening): significant resistance activity
[2]
  MIC: 2 µg/mL (≈ 3.86 µM)
[3]; Penicillium, ATCC1109, 120 h, Oxford Cup method, PDA plates, 28° C., 5 days, strain ATCC 1109, read-out: minimum inhibitory concentration (MIC)
  MIC: 4 µg/mL (≈ 7.71 µM)
[3]; result in words
  resistance activity against Penicillium citrinum (antifungal activity screening): significant resistance activity
